For nine molecules, IC50 and inhibition in vivo results are on record in patent US9096615B2, “Bridged bicyclic amino thiazine dioxide compounds as inhibitors of beta-secretase and methods of use thereof” (AMGEN INC., priority 2013, dated 2015).

SMILES strings stand for the structures. Where two headings read alike, the source gives them in different places.

Assay [1] has as its system Aβ40 in conditioned medium of cells stably expressing Amyloid Precursor Protein (APP). The assay can be described thus: In vitro BACE cell-based assay (HEK cell assay, Aβ40 sandwich ELISA). The conditions noted are these: Homo sapiens, HEK293; average IC50; read-out: BACE1 cell assay IC50. The procedure, abridged: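 IC50 was derived from percent-of-control Aβ40 against concentration, with Aβ40 quantified by time-resolved fluorescence ELISA (pAb40/6E10-biotin, 4 °C incubations). Supernatants were sampled after 24 h of compound exposure (10 points, starting 100 or 10 μM, 0.1% DMSO) of cells stably expressing APP.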
On the technique in general: In an ELISA, binding on a coated surface is turned into a signal by an enzyme label.

Assay [2] has as its target T1, Cathepsin D (Cat D) (Homo sapiens, UniProt P07339).
T1 construct: made in house; host or cells: CHO cells
Briefly: In vitro enzymatic Cathepsin D (Cat D) FRET assay. It is filed as biochemical. The conditions noted are these: average IC50; first procedure; read-out: CatD IC50. In short, it runs like this:
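Fluorescence (500 nm excitation, 580 nm emission) was measured after Tris quench of a 1 h cleavage of 20 nM quenched peptide substrate. Before that, 9 nM CHO-expressed human Cat D sat with compound for 1 h at pH 3.5 (0.05 M citrate, 5 mM CHAPS, 10% DMSO final).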

Assay [3] deals with T2, human Bace2 protein (Homo sapiens, UniProt Q9Y5Z0).
T2 construct: V5 (C); 6-His (C)
T2 sequence (Q9Y5Z0 63-518): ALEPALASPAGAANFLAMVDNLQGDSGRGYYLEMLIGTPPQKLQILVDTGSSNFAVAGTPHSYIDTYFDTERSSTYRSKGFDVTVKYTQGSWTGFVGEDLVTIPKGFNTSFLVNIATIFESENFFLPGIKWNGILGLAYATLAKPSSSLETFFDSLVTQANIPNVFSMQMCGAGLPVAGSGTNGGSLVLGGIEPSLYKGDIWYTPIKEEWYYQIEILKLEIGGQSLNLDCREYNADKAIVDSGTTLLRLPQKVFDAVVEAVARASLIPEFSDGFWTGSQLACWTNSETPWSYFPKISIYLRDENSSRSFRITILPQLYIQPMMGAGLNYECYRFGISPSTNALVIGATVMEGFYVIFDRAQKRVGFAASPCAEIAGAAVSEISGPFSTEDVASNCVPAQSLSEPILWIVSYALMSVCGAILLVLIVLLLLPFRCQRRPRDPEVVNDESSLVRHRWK
Briefly: In vitro enzymatic BACE2 FRET assay. The format is biochemical. The conditions noted are these: average IC50; read-out: BACE2 Enzyme assay IC50. The protocol:
In Vitro Enzymatic BACE2 FRET (Fluorescence Resonance Energy Transfer) Assay
Enzyme Assay Data in the Table 3
The assay buffer used in this screen is 0.05 M acetate, pH 4.2, 10% DMSO final, 100 uM genapol (which is a nonionic detergent, below its Critical Micelle Concentration). The Beta Secretase2 enzyme (human Bace2 protein with C-terminal V5 and 6-His tag; 0.2 nM) is pre-incubated for one hour with inhibitors, typically in about 1 uL of DMSO according to a serial dilution, are added thereto. This assay is effectively started by the addition of FRET substrate (50 nM) and the combination is incubated for one hour. Final assay concentration of about 0.64 nM. The FRET assay is terminated with by addition of Tris buffer, which raises the pH to neutrality, and the fluorescence is determined. The FRET substrate is a peptide with commercially available fluorophore and quencher, on opposite sides of the BACE cleavage site. Proteolytic cleavage of the FRET substrate releases quenching of fluorescence (excitation 488 nm and […]).

Assay [4] concerns the target BACE1 (Homo sapiens, UniProt P56817). The assay can be described thus: In vitro enzymatic BACE FRET assay. It is filed as biochemical. The conditions noted are these: average IC50; read-out: BACE1 Enzyme assay IC50. In short, it runs like this:
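Fluorescence (excitation 488 nm, […]) from cleavage of quenched peptide substrate (50 nM), reaction run 1 h after 1 h enzyme–inhibitor pre-incubation, then neutralised with Tris. Conditions: 0.2 nM enzyme, pH 4.2 acetate 0.05 M, 10% DMSO final, 100 uM genapol.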

Assay [5] deals with Abeta 40. The assay can be described thus: In vivo inhibition of beta-secretase: percent Abeta 40 reduction in CSF and brain. Also noted: species or system rat. The conditions noted are these: 10 mpk, after 4 hrs. From the text: In Vivo Inhibition of Beta-Secretase
Several animal models, including mouse, rat, dog, and monkey, may be used to screen for inhibition of beta-secretase activity in vivo following administration of a test compound sample. Animals used in this invention can be wild type, transgenic, or gene knockout animals. For example, the Tg2576 mouse model, prepared and conducted as described in Hsiao et al., 1996, Science 274, 99-102, and other non-transgenic or gene knockout animals are useful to analyze in vivo inhibition of Amyloid beta peptide (Abeta) production in the presence of inhibitory test compounds. Generally, 2 to 18 month old Tg2576 mice, gene knockout mice or non-transgenic animals are administered test compounds formulated in vehicles, such as cyclodextran, phosphate buffers, hydroxypropyl methylcellulose or other suitable vehicles. One to twenty-four hours following the administration of compound, animals are sacrificed, and brains as well as cerebrospinal fluid (CSF) and plasma are removed for analysis of A-beta levels and drug or test compound concentrations (Dovey et al., 2001, Journal of Neurochemistry, 76, 173-181) Beginning at time 0, animals are administered by oral gavage, or other means of delivery such as intravenous injection, an inhibitory test compound of up to 100 mg/kg in a standard, conventional formulation, such as 2% hydroxypropyl methylcellulose, 1% Tween80. A separate group of animals receive 2% hydroxypropyl methylcellulose, 1% Tween80 alone, containing no test compound, and serve as a vehicle-control group. At the end of the test period, animals are sacrificed and brain tissues, plasma or cerebrospinal fluid are collected. Brains are either homogenized in 10 volumes (w/v) of 0.2% diethylamine (DEA) in 50 mM NaCl (Best et al., 2005, Journal of Pharmacology and Experimental Therapeutics, 313, 902-908), or in 10 volumes of 0.5% TritonX-100 in Tris-buffered saline (pH at about 7.6). Homogenates are centrifuged at 355,000 g, 4° C. for 30 minutes. CSF or brain supernatants are then analyzed for the presence of A-beta peptide by specific sandwich ELISA assays based on ECL (Electrochemiluminescence) technology. For example, rat Abeta40 is measured using biotinylated-4G8 (Signet) as a capture antibody and Fab40 (an in-house antibody specific to the C-terminal of Abeta40) as a detection antibody. For example, 4 hours after administration of 30 mg/kg oral dose of the test compound in 2% hydroxypropyl methylcellulose, 1% Tween80 (pH2.2) to 200 g male Sprague Dawley rats, amyloid beta peptide levels are measured for reduction by X % and Y % in cerebrospinal fluid and brain, respectively, when compared to the levels measured in the vehicle-treated or control […].
Actual vehicles used: Oral: 2% HPMC, 1% Tween80, pH 2.2
• IV: 5% EtOH, 45% Propylene glycol in 5% Dextrose
The compounds of the invention may be shown to reduce the formation and/or deposition of amyloid beta peptide in the cerebrospinal fluid (CSF) as well as in the brain of a mouse or rat at either 3 mpk, 10 mpk or 30 mpk (mpk=mg compound per kg weight of the animal) dosing concentrations after 4 hrs.

Setting [6] is: Abeta 40, rat CSF, read-out: % reduction of rat CSF levels at 10 pmk.
The mark [7] stands for this setting: Abeta 40, rat brain, read-out: % reduction of rat brain levels at 10 mpk.

Sequence of BACE1 (P56817 46-501, species assumed): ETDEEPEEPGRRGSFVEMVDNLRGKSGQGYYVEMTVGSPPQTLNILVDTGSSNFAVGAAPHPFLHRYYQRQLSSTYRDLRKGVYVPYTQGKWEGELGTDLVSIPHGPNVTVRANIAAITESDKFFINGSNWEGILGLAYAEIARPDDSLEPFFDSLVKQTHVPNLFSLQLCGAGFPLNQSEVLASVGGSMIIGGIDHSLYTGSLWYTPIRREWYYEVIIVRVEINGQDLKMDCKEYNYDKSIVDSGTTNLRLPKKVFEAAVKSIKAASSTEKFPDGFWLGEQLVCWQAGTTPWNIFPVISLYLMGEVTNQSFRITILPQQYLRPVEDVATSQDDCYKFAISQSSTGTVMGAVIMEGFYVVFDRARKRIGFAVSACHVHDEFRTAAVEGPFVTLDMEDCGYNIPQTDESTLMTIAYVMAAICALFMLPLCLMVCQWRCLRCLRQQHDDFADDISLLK
T1 sequence (P07339 65-412, species assumed): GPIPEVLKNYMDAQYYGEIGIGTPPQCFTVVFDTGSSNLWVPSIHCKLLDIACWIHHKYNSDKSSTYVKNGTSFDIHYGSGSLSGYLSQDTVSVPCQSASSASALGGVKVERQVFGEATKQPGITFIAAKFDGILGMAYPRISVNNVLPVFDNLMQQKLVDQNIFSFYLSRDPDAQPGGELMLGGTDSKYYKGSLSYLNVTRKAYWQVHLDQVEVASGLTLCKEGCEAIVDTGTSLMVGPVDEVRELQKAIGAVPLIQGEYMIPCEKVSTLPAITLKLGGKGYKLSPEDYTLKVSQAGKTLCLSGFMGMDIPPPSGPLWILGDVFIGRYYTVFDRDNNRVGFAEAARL

For orientation: IC50 means the concentration that inhibits the measured activity by half. Consider `Cc1cc(Cl)cnc1C(=O)Nc1ccc(F)c([C@@]2(C)N=C(N)[C@]3(CF)CC[C@H]2S3(=O)=O)c1` [Example 89, N-(3-((1R,2R,5S)-4-amino-5-(fluoromethyl)-2-methyl-8,8-dioxido-8-thia-3-azabicyclo[3.2.1]oct-3-en-2-yl)-4-fluorophenyl)-5-chloro-3-methyl-2-pyridinecarboxamide], for which the IC50 in assay [1] is 0.053 µM; in assay [2], 1550 µM; in assay [3] it was 0.006 µM; in assay [4], 0.016 µM.

With `Cc1nc(OCC(F)(F)F)cnc1C(=O)Nc1ccc(F)c([C@@]2(C)N=C(N)[C@@]3(CF)CC[C@@H]2S3(=O)=O)c1` [Example 57, N-(3-((1S,2R,5R)-4-amino-5-(fluoromethyl)-2-methyl-8,8-dioxido-8-thia-3-azabicyclo[3.2.1]oct-3-en-2-yl)-4-fluorophenyl)-3-methyl-5-(2,2,2-trifluoroethoxy)-2-pyrazinecarboxamide], the IC50 in assay [1] is 0.048 µM; in assay [2] it was over 400 µM; in assay [3], 0.076 µM; in assay [4] it was 0.003 µM.

As for `COCCOc1cnc2c(Nc3ccc(F)c([C@@]4(C)N=C(N)[C@@]5(C)CC[C@@H]4S5(=O)=O)c3)nccc2n1` [Example 145, N-(3-((1S,2R,5R)-4-amino-2,5-dimethyl-8,8-dioxido-8-thia-3-azabicyclo[3.2.1]oct-3-en-2-yl)-4-fluorophenyl)-2-(2-methoxyethoxy)pyrido[3,4-b]pyrazin-5-amine], the IC50 is 0.002 µM in assay [1], 1980 µM in assay [2], 0.065 µM in assay [3] and 0.003 µM in assay [4].

In the case of `C[C@]1(c2cc(Nc3ncc(F)c4cc(C#N)cnc34)ccc2F)N=C(N)[C@@]2(CF)CC[C@@H]1S2(=O)=O` [Example 53, 8-((3-((1S,2R,5R)-4-amino-5-(fluoromethyl)-2-methyl-8,8-dioxido-8-thia-3-azabicyclo[3.2.1]oct-3-en-2-yl)-4-fluorophenyl)amino)-5-fluoro-1,7-naphthyridine-3-carbonitrile], the IC50 is 0.038 µM in assay [1], over 14.8 µM in assay [2], 0.002 µM in assay [3] and 0.003 µM in assay [4].

`CC#CCOc1ccc(C(=O)Nc2ccc(F)c([C@@]3(C)N=C(N)[C@]4(C)CC[C@H]3S4(=O)=O)c2)c(F)c1` [Example 129, N-(3-((1R,2R,5S)-4-amino-2,5-dimethyl-8,8-dioxido-8-thia-3-azabicyclo[3.2.1]oct-3-en-2-yl)-4-fluorophenyl)-4-(2-butyn-1-yloxy)-2-fluorobenzamide]: the IC50 in assay [1] was 0.044 µM; in assay [2] it was 348 µM; in assay [3] it was 7 µM; in assay [4] it was 0.061 µM.

`C[C@]12CC[C@H]([C@@](C)(c3cc(Nc4nccc5cc(C#N)cnc45)ccc3F)N=C1N)S2(=O)=O` [Example 85, 8-((3-((1R,2R,5S)-4-amino-2,5-dimethyl-8,8-dioxido-8-thia-3-azabicyclo[3.2.1]oct-3-en-2-yl)-4-fluorophenyl)amino)-1,7-naphthyridine-3-carbonitrile]: the 50% inhibitory concentration (IC50) came out at 0.011 µM in assay [1], 1450 µM in assay [2], 0.024 µM in assay [3] and 0.013 µM in assay [4].

Consider `CC(C)(C)C#CCOc1cnc(C(=O)Nc2ccc(F)c([C@@]3(C)N=C(N)C4(CF)CCC3S4(=O)=O)c2)cn1` (stereo in doubt) [Example 38, N-(3-((1S,2R,5R)-4-Amino-5-(fluoromethyl)-2-methyl-8,8-dioxido-8-thia-3-azabicyclo[3.2.1]oct-3-en-2-yl)-4-fluorophenyl)-5-((4,4-dimethylpent-2-yn-1-yl)oxy)pyrazine-2-carboxamide], for which the IC50 was determined as 0.031 µM in assay [1], 437 µM in assay [2], 0.011 µM in assay [3] and 0.004 µM in assay [4].

On to `COc1cnc(C(=O)Nc2ccc(F)c([C@@]3(C)N=C(N)[C@@]4(C)CC[C@@H]3S4(=O)=O)c2)c(C)n1` [Example 79, N-(3-((1S,2R,5R)-4-amino-2,5-dimethyl-8,8-dioxido-8-thia-3-azabicyclo[3.2.1]oct-3-en-2-yl)-4-fluorophenyl)-5-methoxy-3-methyl-2-pyrazinecarboxamide], for which the inhibition in vivo at 10 mg/kg in assay [5] (setting [6]) came out at 71%; in assay [5] (setting [7]) it was 62%. For the same molecule, the IC50 in assay [1] was found to be 0.003 µM; in assay [2], 1830 µM; in assay [4], 0.009 µM.

For the molecule `Cc1cc(C(F)(F)F)cnc1C(=O)Nc1ccc(F)c([C@@]2(C)N=C(N)[C@@]3(CF)CC[C@@H]2S3(=O)=O)c1` [Example 92, N-(3-((1S,2R,5R)-4-amino-5-(fluoromethyl)-2-methyl-8,8-dioxido-8-thia-3-azabicyclo[3.2.1]oct-3-en-2-yl)-4-fluorophenyl)-3-methyl-5-(trifluoromethyl)-2-pyridinecarboxamide], the inhibition in vivo at 10 mg/kg in assay [5] (setting [6]) turned out to be 73%; in assay [5] (setting [7]), 67%. The IC50 in assay [1] turned out to be 0.005 µM; in assay [2], 789 µM; in assay [4], 0.004 µM.
